For ten molecules, GI50 and TGI results are on record in PubChem BioAssay (NCI).

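All cell lines were grown in 96-well plates and treated with compound for 48 hours. The concentration for 50% growth inhibition is given as GI50. TGI denotes the concentration required for complete inhibition of growth.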 Bounds are passed on as bounds.

Some test systems named below: NCI-H23 lung; BT-549 breast; HCC-2998 colon; DU-145 prostate; SNB-75 CNS; HOP-62 NSCLC; SR leukemia; RPMI-8226 leukemia.
Holding throughout (test): DTP human tumour cell line panel, 48 h

As to `Cc1cc(N2CCOCC2)nc(N(CCCNc2ccnc3cc(Cl)ccc23)Cc2ccco2)n1`, the GI50 (as a rule, the concentration that inhibits growth by half) was 2.76 µM with NCI-H23 lung; 2.3 µM with BT-549 breast; 2.97 µM in the assay with HCC-2998 colon; 3.23 µM in the assay on DU-145 prostate; 2.29 µM in the assay on SNB-75 CNS; 1.73 µM in the assay with HOP-62 NSCLC. Further, the GI50 in the assay with SR leukemia was 1420 nM; with RPMI-8226 leukemia, 2.13 µM. For the same molecule, the TGI (usually the concentration at which net growth stops) worked out at 12.7 µM in the assay with NCI-H23 lung; 7.95 µM in the assay with BT-549 breast; 8.18 µM in the assay with HCC-2998 colon; 14.2 µM with DU-145 prostate; 9.78 µM in the assay with SNB-75 CNS; 6 µM with HOP-62 NSCLC. Moreover, the TGI was found to be 5.28 µM in the assay on SR leukemia and 6.33 µM in the assay with RPMI-8226 leukemia.

Turning to `Oc1ccc(C2c3ccccc3Oc3ccccc32)c2cccnc12`, the GI50 in the assay with NCI-H23 lung is 2.26 µM; with BT-549 breast, 3.15 µM; in the assay with HCC-2998 colon, 1.89 µM; with DU-145 prostate, 1.94 µM; in the assay with SNB-75 CNS it was 6.96 µM; in the assay with HOP-62 NSCLC, 0.979 µM. The GI50 was 1970 nM in the assay on SR leukemia and 1.7 µM with RPMI-8226 leukemia. The TGI in the assay with NCI-H23 lung, in the assay with BT-549 breast, in the assay on HCC-2998 colon, with DU-145 prostate, in the assay on SNB-75 CNS and in the assay with HOP-62 NSCLC was above 100 µM throughout. Further, the TGI in the assay with SR leukemia and with RPMI-8226 leukemia was above 100 µM each time.

For the molecule `CCn1c(-c2nonc2N)nc2c(C#CC(C)(C)O)ncc(OC[C@H]3CCCNC3)c21`, the GI50 with NCI-H23 lung is 23.5 µM; with BT-549 breast, 6.85 µM; with HCC-2998 colon it was 21.2 µM; in the assay with DU-145 prostate it was 12.9 µM; with SNB-75 CNS, 0.0584 µM; with HOP-62 NSCLC it was 23.3 µM. Also, the GI50 was 12000 nM in the assay with SR leukemia and 17.4 µM in the assay on RPMI-8226 leukemia. In addition, the TGI was above 96 µM in the assay on NCI-H23 lung; 28.6 µM in the assay with BT-549 breast; above 100 µM in the assay with HCC-2998 colon; 73.8 µM with DU-145 prostate; 1.54 µM with SNB-75 CNS; 72.7 µM in the assay on HOP-62 NSCLC. For the same molecule, the TGI in the assay on SR leukemia came to 41.8 µM; in the assay with RPMI-8226 leukemia, 50.5 µM.

Turning to `CCN(CC)C(=S)SCN1C(=O)c2ccccc2S1(=O)=O`, the GI50 with NCI-H23 lung is 45.5 µM; with BT-549 breast, 63.4 µM; in the assay with HCC-2998 colon it was 40.8 µM; with DU-145 prostate, 29.4 µM; in the assay on SNB-75 CNS, 46.7 µM; with HOP-62 NSCLC, 39.3 µM. In addition, the GI50 in the assay with SR leukemia was below 10 nM; in the assay with RPMI-8226 leukemia, below 0.01 µM. For the same molecule, the TGI in the assay on NCI-H23 lung is above 91.1 µM; in the assay on BT-549 breast it was above 100 µM; with HCC-2998 colon it was above 78 µM; in the assay on DU-145 prostate, above 100 µM; in the assay on SNB-75 CNS, above 91.5 µM; in the assay on HOP-62 NSCLC, above 100 µM. In addition, in the assay on SR leukemia, the concentration for total growth inhibition (TGI) turned out to be 27.7 µM.

With `CN(Cc1cc(Br)cc(Br)c1O)Cc1c(O)ccc2ccccc12`, the TGI in the assay with NCI-H23 lung was found to be 50.6 µM; in the assay on BT-549 breast it was 49 µM; in the assay with HCC-2998 colon, 37.9 µM; in the assay with DU-145 prostate, 40.6 µM; with SNB-75 CNS, 39.1 µM; in the assay with HOP-62 NSCLC, 38.9 µM. For the same molecule, the TGI in the assay with SR leukemia is 55.6 µM; in the assay with RPMI-8226 leukemia, above 100 µM.

`CSC(=S)OC1CC(n2cnc3c(NC(=O)c4ccccc4)ncnc32)OC1CO[Si](C)(C)C(C)(C)C` (stereo not drawn): the TGI with NCI-H23 lung is above 56.2 µM; with BT-549 breast, above 100 µM; with HCC-2998 colon, above 31.6 µM; in the assay on DU-145 prostate it was 42.6 µM; with SNB-75 CNS, 52 µM; with HOP-62 NSCLC, 46 µM. In addition, the TGI with SR leukemia is above 50 µM; in the assay with RPMI-8226 leukemia it was 43 µM.

Turning to `CCC(=O)Nc1ccc(C)c(-c2ccc(C(=O)NCC3CC3)cc2)c1`, the GI50 in the assay on NCI-H23 lung, in the assay on BT-549 breast, in the assay with HCC-2998 colon, with DU-145 prostate, with SNB-75 CNS and with HOP-62 NSCLC was above 25 µM each time. The GI50 was above 25000 nM in the assay with SR leukemia and above 25 µM in the assay with RPMI-8226 leukemia. Besides, the TGI in the assay on NCI-H23 lung, in the assay on BT-549 breast, in the assay with HCC-2998 colon, in the assay on DU-145 prostate, in the assay with SNB-75 CNS and in the assay on HOP-62 NSCLC was above 25 µM each time. Moreover, the TGI in the assay on SR leukemia and in the assay on RPMI-8226 leukemia was above 25 µM each time.

`C/C(O)=C(\C#N)C(=O)Nc1ccc(C(F)(F)F)cc1`: the GI50 with NCI-H23 lung was 73.7 µM; with BT-549 breast it was 51.7 µM; in the assay with HCC-2998 colon it was 45.2 µM; in the assay with DU-145 prostate it was 46.7 µM; in the assay on SNB-75 CNS it was above 100 µM; in the assay with HOP-62 NSCLC it was 77.9 µM. Further, the GI50 in the assay with SR leukemia is above 100000 nM; in the assay with RPMI-8226 leukemia, 24.8 µM. Further, the TGI in the assay on NCI-H23 lung, with BT-549 breast, with HCC-2998 colon, with DU-145 prostate, in the assay on SNB-75 CNS and with HOP-62 NSCLC was above 100 µM in each case. Besides, the TGI in the assay on SR leukemia and in the assay with RPMI-8226 leukemia was above 100 µM throughout.

Turning to `COC(=O)c1cc2c3ccccc3[nH]c2c2sccc12`, the GI50 was 33.8 µM in the assay on NCI-H23 lung; 20.2 µM with BT-549 breast; 19.4 µM in the assay with HCC-2998 colon; 19.7 µM in the assay on DU-145 prostate; 19 µM in the assay on SNB-75 CNS; 11.2 µM in the assay with HOP-62 NSCLC. Moreover, the GI50 was 12200 nM with SR leukemia and 15.1 µM in the assay with RPMI-8226 leukemia. For the same molecule, the TGI in the assay with NCI-H23 lung is above 100 µM; in the assay on BT-549 breast, 57 µM; in the assay with HCC-2998 colon it was 43.5 µM; with DU-145 prostate it was 66.5 µM; with SNB-75 CNS, 70.6 µM; in the assay on HOP-62 NSCLC it was 39.8 µM. Also, the TGI in the assay with SR leukemia was 56.5 µM; in the assay with RPMI-8226 leukemia, above 100 µM.

In the case of `COc1ccc2c(c1)C(=O)/C(=C/c1ccc([N+](=O)[O-])o1)O2`, the GI50 in the assay with NCI-H23 lung was 1.8 µM; in the assay on BT-549 breast, 1.53 µM; in the assay with HCC-2998 colon it was 1.89 µM; with DU-145 prostate, 2.05 µM; in the assay with SNB-75 CNS, 1.73 µM; with HOP-62 NSCLC, 1.82 µM. For the same molecule, the figures for the GI50 in the assay with SR leukemia and in the assay with RPMI-8226 leukemia were 198 nM and 2.01 µM, respectively. Moreover, the TGI with NCI-H23 lung is 4 µM; with BT-549 breast, 3.44 µM; with HCC-2998 colon it was 3.74 µM; with DU-145 prostate, 3.97 µM; in the assay on SNB-75 CNS, 5.69 µM; in the assay on HOP-62 NSCLC it was 4.09 µM. Also, the TGI amounted to 1.23 µM in the assay on SR leukemia and 6.2 µM with RPMI-8226 leukemia.
